Laboratory results published in patent US9642835B2, “Modulators of GTPase and use in relevant treatment” (STC.UNM, priority 2010, dated 2017).

Tested on: Cdc42, Rab2, Rab7, activated Rac1Q61L, Rac1, and H-Ras
Assay: Multiplexed primary screen, fluorescent GTP binding
Settings: 10 μM compound
Experimental: Multiplex screening was performed by measuring GTP-binding activities of six GTPases (Cdc42, Rab2, Rab7, activated Rac1Q61L, Rac1, and H-Ras) simultaneously using special glutathione (GSH) bead sets having varied fluorescence intensities at a fixed wavelength^38. Individual GST-GTPase chimeras were tested against approximately 200,000 small molecules from the Molecular Libraries Small Molecule Repository (MLSMR). Results of fluorescent GTP-binding from the entire primary screen are summarized in the open access Pubchem database as required for projects conducted under the Roadmap Initiative (AID 757-761, 764). […] In total 1877 compounds/194,635 were identified as activators or inhibitors in the primary screen. On the order of 100-500 compounds were found active per GTPase target, enabling an unprecedented, comprehensive evaluation of small molecules active against various Ras-related GTPase family members. Here we report one compound active specifically on Cdc42 and structure activity relationships determined through chemical synthesis.
Multiplex analysis of small GTPases, were performed as we have described previously {Surviladze, 2009}. […] Flow cytometric light scatter and fluorescence emission at 530+/−20 nm (FL1) and 665+/−10 nm (FL8) were collected on a Cyan ADP flow cytometer (Beckman Coulter, Fullerton, Calif.). The resulting time-dependent data (one file per plate) were analyzed using IDLQuery software to determine the compound activity in each well. […] Gating based on FL8 emission distinguishes the beads coated with different proteins, and the median fluorescence per bead population was calculated. […]
For detection of GTP binding to small G-proteins we used bead-based multiplex flow cytometry assay {Surviladze, 2009}. […] Six individual GST-GTPases representative of Rho, Ras and Rab branches of the Ras-related GTPase family (Cdc42 wt, Rac1 wt, Rac1Q61L, Rab2 wt, Rab7 wt, and H-Ras wt) were first bound to GSH-beads of a particular fluorescence intensity. […]

Compound: COc1ccc(C2CC(c3ccccc3)=NN2c2ccc(S(N)(=O)=O)cc2)cc1 (stereo not shown) [MLS000693334, 4-[3-(4-methoxyphenyl)-5-phenyl-3,4-dihydropyrazol-2-yl]benzenesulfonamide]
- Outcome of primary screening: specific inhibitors
